The results in this text go back to patent US5270316A, “Condensed purine derivatives” (Kyowa Hakko Kogyo Co., Ltd., priority 1989, dated 1993).

Where two headings read alike, the source gives them in different places.

The nature of data set [1]: Diuretic activity (oral, urine collected for 6 hours). It is filed as in vivo, rat (Wistar male rats). Conditions: Rattus norvegicus, rats; for response vs control in vivo at 25 mg/kg: 25 mg/kg oral; for response vs control in vivo at 1.6 mg/kg: 1.6 mg/kg oral; for response vs control in vivo at 6.25 mg/kg: 6.25 mg/kg oral. On the procedure: Wistar male rats weighing 150 to 300 g were used after they were fasted for 18 hours. A test compound or saline (control) was orally administered to rats and urine was collected for 6 hours. The test was performed using 3 groups per the test compound, and each group consists of 3 animals. The urine was metered by a measuring cylinder and electrolytes (Na^+ and K^+) in the urine were assayed with a flame photometer (model […] manufactured by Hitachi Ltd.). Parameters in Table 3 are all expressed by relative value for control.

Data set [2] in a line: Acute toxicity, minimum lethal dose (oral, mice). It is filed as in vivo. The settings on record: male dd-mice, mortality observed for seven days. On the procedure:
The compounds were orally administrated to male dd-mice weighing 20±1 g. Minimum lethal dose (MLD) was determined by observing the mortality for seven days after the administration.

In data set [3] the test system is Platelet Activating Factor (PAF)-induced mortality. Put plainly: Inhibition of Platelet Activating Factor (PAF)-induced mortality. The format is in vivo, mouse (male dd mice). The settings on record: Mus musculus, 2 h, oral, mice, one hour before PAF 40 μg/kg i.v., p<0.05 vs control, read-out: PAF-induced mortality inhibition, minimum effective dose (MED). On the procedure: The experiment was performed by a minor modification of method of Carlson et al. [Agents and Actions, 21, 379 (1987)]. Groups each consisting of 10 male dd mice (weighing 28 to 32 g) were used, and 100 mg/kg of test compound or a saline (control) was orally administrated. One hour after the administration of test compound, 40 μg/kg of PAF (manufactured by Avanti Polar Lipids Co., Ltd.) was intravenously administered. Two hours after PAF injection, the mortality rate of the animals was observed.

Data set [4] has as its system trachea. Put plainly: Passive Schultz-Dale reaction (bronchodilatory effects), relaxation of sensitized trachea strips. The arrangement: species or system guinea pig (Hartley male). Conditions: Cavia porcellus; sensitized guinea pig trachea, EWA 1 μg/ml, 37° C.; read-out: Passive S-D reaction IC50 (concentration of 50% relaxation rate). On the procedure:
Guinea pigs were passively sensitized as follows. […] After 24 hours, the guinea pigs were stunned and exsanguinated, and then trachea was excised. The zig-zag strips of the trachea were prepared by the method of Emmerson and Mackay [J. Pharm. […] After the contraction curves reached plateau the compounds were successively added in order to get cumulative concentration-relaxation curves.

Data set [5] concerns Glycerol-induced Renal Deficient Model. Briefly: Renal protecting activity (glycerol-induced renal deficient model): serum creatinine and urea nitrogen. It is filed as in vivo, rat (Wistar male rats). Conditions: 10 mg/kg intraperitoneal, rats, 24 hours after glycerol injection, own control beside each compound; for Creatinine in serum, glycerol treated, test compound administrated: normal control 0.50; for Urea nitrogen in serum, glycerol treated, test compound administrated: normal control 15.2. As for the experimental part:
It is well known that subcutaneous or intramuscular administration of glycerol to rat induce acute renal insufficiency characterized by renal tubular disturbance [Can J. Physiol.
Wistar male rats (fasted both food and water for 18 hours) were used. A test compound or saline (control) was intraperitoneally administered (dose: 10 mg/kg) to rats. After 30 minutes rats were anesthesized with ether and the back skin was picked up and 0.8 ml/100 g of 50% glycerol was subcutaneously administered. 24 hours after the glycerol injection, the rats were anesthesized with ether and 5 ml of the blood was collected from the descending aorta. To obtain the serum, after allowing it to stand for 30 minutes or longer, the blood sample was centrifuged at 3000 rpm for 10 minutes. Creatinine in the serum sample was determined using autoanalyzer (AU510, Olympus) or clinical analysis kit of creatinine (Creatinine Test Wako; by Wako Pure Chemical Ind., Japan). Urea nitrogen in the serum was determined using autoanalyzer (AU510; made by Olympus Optical Co., Ltd, Japan) or clinical analysis kit of urea nitrogen (Urea nitrogen test wako; by Wako Pure Chemical Ind., Japan).

[6] abbreviates: relative value for control (1.00), read-out: Na+/K+.
The mark [7] stands for this setting: relative value for control, read-out: Excretion of K+.
[8] abbreviates: relative value for control, read-out: Excretion of Na+.
Where [9] appears, read: relative value for control, read-out: Urine volume.

Turning to `CCCN1C(=O)N2C(=NCC2C)c2[nH]c(C3CCCC3)nc21` (stereo not shown) [19 Sa], the response vs control in vivo at 25 mg/kg worked out at 143% in data set [1] (setting [6]), 31% in data set [1] (setting [7]), 87% in data set [1] (setting [8]) and 111% in data set [1] (setting [9]). Also, in data set [2], the “Minimum lethal dose (MLD)” value is listed as over 300 mg/kg.
In the case of `CCCN1C(=O)N2C(=NCC2c2ccccc2)c2[nH]c(C3CCCC3)nc21` (stereo not shown) [11 Sa], in data set [2], the “Minimum lethal dose (MLD)” value is listed as over 300 mg/kg.
With `O=C1N2CCN=C2c2[nH]cnc2N1Cc1ccccc1` [9 Sa], the response vs control in vivo at 25 mg/kg worked out at 126% in data set [1] (setting [6]), 31% in data set [1] (setting [7]), 65% in data set [1] (setting [8]) and 88% in data set [1] (setting [9]). The “Minimum lethal dose (MLD)” value in data set [2] is on record as over 300 mg/kg.
As for `CCCN1C(=O)N2CC(Cc3ccccc3)N=C2c2[nH]c(C3CCCC3)nc21` (stereo not shown) [12 Sa], the response vs control in vivo at 1.6 mg/kg worked out at 152% in data set [1] (setting [6]), 33% in data set [1] (setting [7]), 102% in data set [1] (setting [8]) and 159% in data set [1] (setting [9]). Also, the “Minimum lethal dose (MLD)” value in data set [2] is over 300 mg/kg.
Regarding `O=c1c2[nH]cnc2nc2n1CCCC2` [Compound 24, 1,5,6,7,8,10-Hexahydropyrido[1,2-a]purin-10-one], in data set [2], the “Minimum lethal dose (MLD)” value is listed as over 300 mg/kg.
For `O=C1N2CCN=C2c2[nH]cnc2N1Cc1ccccc1` [Compound 9, 4-Benzyl-1,4,7,8-tetrahydro-5H-imidazo[2,1-i]purin-5-one], the minimal effective dose in data set [3] was found to be 100 mg/kg. The IC50 in data set [4] was over 40 µM.
Consider `CCCN1C(=O)N2CCN=C2c2c1nc(C1CCCC1)n2C` [Compound 7, 2-Cyclopentyl-1-methyl-4-n-propyl-1,4,7,8-tetrahydro-5H-imidazo[2,1-i]purin-5-one], for which the minimal effective dose in data set [3] was over 100 mg/kg. The IC50 in data set [4] is 8.1 µM. For the same molecule, the response vs control in vivo at 25 mg/kg in data set [1] (setting [6]) was 137%; in data set [1] (setting [7]) it was 56%; in data set [1] (setting [8]), 114%; in data set [1] (setting [9]), 128%. The “Creatinine in serum, glycerol treated, test compound administrated” value (from here on “Creatinine in serum, glycerol treated”) in data set [5] was found to be 1.70 ± 0.17 mg/dL. Moreover, the “Urea nitrogen in serum, glycerol treated, test compound administrated” value (from here on “Urea nitrogen in serum, glycerol treated”) in data set [5] was 64.3 ± 7.1 mg/dL.
Take `CCCN1C(=O)N2CCN=C2c2[nH]c(C3CCCC3)nc21` [Compound 6, 2-Cyclopentyl-4-n-propyl-1,4,7,8-tetrahydro-5H-imidazo[2,1-i]purin-5-one]: the minimal effective dose in data set [3] amounted to 50 mg/kg. Besides, the IC50 in data set [4] is over 40 µM. The response vs control in vivo at 1.6 mg/kg in data set [1] (setting [6]) is 155%; in data set [1] (setting [7]), 30%; in data set [1] (setting [8]) it was 102%; in data set [1] (setting [9]), 121%. The “Creatinine in serum, glycerol treated” value in data set [5] turned out to be 1.81 ± 0.12 mg/dL.
Regarding `CCCN1C(=O)N2C(=NCC2CC)c2[nH]c(C3CCCC3)nc21` (stereo not shown) [18 Sa], the response vs control in vivo at 25 mg/kg in data set [1] (setting [6]) was found to be 120%; in data set [1] (setting [7]), 37%; in data set [1] (setting [8]), 65%; in data set [1] (setting [9]) it was 92%. Moreover, the “Minimum lethal dose (MLD)” value in data set [2] is reported as over 300 mg/kg. In data set [5], the “Creatinine in serum, glycerol treated” value is 2.85 ± 0.33 mg/dL. In data set [5], the “Urea nitrogen in serum, glycerol treated” value turned out to be 101.2 ± 9.9 mg/dL.
In the case of `CCCN1C(=O)N2CCN=C2c2c1ncn2C` [Compound 1, 1-Methyl-4-n-propyl-1,4,7,8-tetrahydro-5H-imidazo[2,1-i]purin-5-one], the minimal effective dose in data set [3] is over 100 mg/kg. Further, in data set [4], the IC50 worked out at 0.003 µM. The “Minimum lethal dose (MLD)” value in data set [2] is listed as over 300 mg/kg. Also, the “Creatinine in serum, glycerol treated” value in data set [5] was 1.94 ± 0.16 mg/dL.
`NS(=O)(=O)c1cc(C(=O)O)c(NCc2ccco2)cc1Cl` [Furosemide, reference compound]: the response vs control in vivo at 25 mg/kg in data set [1] (setting [6]) stood at 107%. In addition, the response vs control in vivo at 25 mg/kg in data set [1] (setting [9]) amounted to 75%. For the same molecule, in data set [5], the “Creatinine in serum, glycerol treated” value is 4.17 ± 0.41 mg/dL and the “Urea nitrogen in serum, glycerol treated” value was 150.3 ± 13.7 mg/dL.
`CCCN1C(=O)N2CC(C)N=C2c2[nH]c(C3CCCC3)nc21` (stereo not shown) [16 Sa]: the response vs control in vivo at 1.6 mg/kg stood at 152% in data set [1] (setting [6]), 31% in data set [1] (setting [7]), 99% in data set [1] (setting [8]) and 80% in data set [1] (setting [9]). Moreover, the “Creatinine in serum, glycerol treated” value in data set [5] came out at 2.38 ± 0.24 mg/dL. Further, the “Urea nitrogen in serum, glycerol treated” value in data set [5] was 80.9 ± 9.5 mg/dL.
Consider `CCCN1C(=O)N2CC(CC)N=C2c2c1ncn2C` (stereo not shown) [Compound 4, 8-Ethyl-1-methyl-4-n-propyl-1,4,7,8-tetrahydro-5H-imidazo[2,1-i]purin-5-one], for which, in data set [3], the minimal effective dose was over 100 mg/kg. In data set [4], the IC50 came to 0.036 µM. In addition, the “Minimum lethal dose (MLD)” value in data set [2] is over 300 mg/kg.
On to `CCCC1CN2C(=O)N(CCC)c3nc(C4CCCC4)[nH]c3C2=N1` (stereo not shown) [17 Sa], for which the response vs control in vivo at 6.25 mg/kg was found to be 291% in data set [1] (setting [6]), 18% in data set [1] (setting [7]), 158% in data set [1] (setting [8]) and 138% in data set [1] (setting [9]). Moreover, the “Minimum lethal dose (MLD)” value in data set [2] is over 300 mg/kg. For the same molecule, the “Creatinine in serum, glycerol treated” value in data set [5] came to 2.35 ± 0.11 mg/dL. Further, in data set [5], the “Urea nitrogen in serum, glycerol treated” value is 88.0 ± 4.9 mg/dL.
Regarding `Cn1cnc2nc3n(c(=O)c21)CCCC3` [Compound 25, 1-Methyl-1,5,6,7,8,10-hexahydropyrido[1,2-a]purin-10-one], the “Minimum lethal dose (MLD)” value in data set [2] is reported as over 300 mg/kg.
Turning to `CCCN1C(=O)N2CC(c3ccccc3)N=C2c2[nH]c(C3CCCC3)nc21` (stereo not shown) [15 Sa], the minimal effective dose in data set [3] is 100 mg/kg. For the same molecule, in data set [4], the IC50 is over 40 µM. Besides, the response vs control in vivo at 6.25 mg/kg in data set [1] (setting [6]) turned out to be 232%; in data set [1] (setting [7]), 9%; in data set [1] (setting [8]), 153%; in data set [1] (setting [9]) it was 137%. Also, the response vs control in vivo at 25 mg/kg in data set [1] (setting [6]) was 151%; in data set [1] (setting [7]), 26%; in data set [1] (setting [8]), 90%; in data set [1] (setting [9]), 95%. In addition, the “Minimum lethal dose (MLD)” value in data set [2] is on record as over 300 mg/kg. Also, the “Creatinine in serum, glycerol treated” value in data set [5] turned out to be 2.34 ± 0.12 mg/dL. The “Urea nitrogen in serum, glycerol treated” value in data set [5] is 101.8 ± 11.8 mg/dL.
On to `CCCN1C(=O)N2CC(CC)N=C2c2[nH]c(C3CCCC3)nc21` (stereo not shown) [Compound 8, 2-Cyclopentyl-8-ethyl-4-n-propyl-1,4,7,8-tetrahydro-5H-imidazo[2,1-i]purin-5-one], for which the IC50 in data set [4] was 72 µM. The response vs control in vivo at 6.25 mg/kg in data set [1] (setting [6]) was 145%; in data set [1] (setting [7]), 1%; in data set [1] (setting [8]) it was 46%; in data set [1] (setting [9]), 42%. The “Creatinine in serum, glycerol treated” value in data set [5] is 3.17 ± 0.32 mg/dL. The “Urea nitrogen in serum, glycerol treated” value in data set [5] came out at 121.2 ± 9.0 mg/dL.
On to `Cn1c(=O)c2[nH]cnc2n(C)c1=O` [Aminophylline, reference compound], for which, in data set [5], the “Creatinine in serum, glycerol treated” value turned out to be 1.72 ± 0.07 mg/dL and the “Urea nitrogen in serum, glycerol treated” value was 30.6 ± 2.0 mg/dL.
